For eleven compounds, TGI results are on record in PubChem BioAssay (NCI).

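Test compounds were applied to cells in 96-well plates for 48 hours at 5 doses. TGI: total growth inhibition.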 *1 amine or outer side, *2 acyl side, *3 side chain or, on linkers, in order; H or OH if unused. Where a SMILES comes first, the peptide text is derived from it. [ ]: non-standard residue; d: D form. The star is where a group is joined. X31 = CC(=O)N(C)SCC(N[*:1])C(=O)[*:2]; X47 = CC(=O)N(C)SCC(N*)/C(O)=N\O; Cbz = O=C(OCc1ccccc1)*; Bn = c1ccc(C*)cc1; For = O=C* Bounds are passed on as bounds.

Assay in all cases: NCI-60 cell line screen, 48 h
In assay [1] the test system is ACHN renal.
Assay [2] concerns BT-549 breast.
For assay [3], the system named is HOP-92 NSCLC.
Assay [4] deals with KM12 colon.
The subject of assay [5] is MALME-3M melanoma.
Assay [6] relates to MCF7 breast.
Assay [7] relates to MDA-MB-435.
Assay [8] deals with MOLT-4 leukemia.
For assay [9], the system named is NCI-H226 lung.
Assay [10] deals with NCI-H23 lung.
For assay [11], the system named is OVCAR-5 ovarian.
For assay [12], the system named is RPMI-8226 leukemia.
Assay [13] has as its system RXF 393 renal.
Assay [14] concerns SK-OV-3 ovarian.
Assay [15] deals with SNB-19 CNS.
Assay [16] relates to SNB-75 CNS.
The test system of assay [17] is SR leukemia.
For assay [18], the system named is SW-620 colon.
The subject of assay [19] is U251 CNS.
The test system of assay [20] is UACC-62 melanoma.

In the case of `COc1cc(C2SC(N)=Nc3c2c(C)nn3C(=O)c2ccccc2O)cc(OC)c1OC` (configuration not stated), the TGI in assay [1] was over 10 µM; in assay [2], over 10 µM; in assay [3], 8.07 µM; in assay [4], over 10 µM; in assay [5], over 10 µM; in [6] it was over 10 µM. In addition, the TGI in assay [7], in [8], in [9], in [10], in [11] and in assay [12] was over 10 µM each time. The TGI in [13] was over 10 µM; in [14] it was over 10 µM; in assay [15], over 10 µM; in assay [16] it was 6.85 µM; in [17] it was over 10 µM; in assay [18], over 10 µM. For the same compound, the TGI is over 10 µM in [19] and 8.19 µM in assay [20].

On to `CCOC(=O)CN1C(=O)c2c(c(C)n(-c3ccccc3)c2C)C1=O`, for which the TGI in assay [1], in [2], in assay [3], in assay [4], in [5] and in [6] was over 100 µM each time. In addition, the TGI in assay [7], in assay [8], in [9], in [10], in assay [11] and in [12] was over 100 µM throughout. In addition, the TGI in assay [13], in [14], in [15], in assay [16], in [17] and in assay [18] was over 100 µM in each case. Besides, the TGI in assay [19] and in assay [20] was over 100 µM in each case.

Consider `COc1ccccc1/C=C/C1=NN(c2cccc(S(=O)(=O)O)c2)C2(C1)SCC(=O)N2c1nc2ccccc2s1` (configuration not stated), for which the TGI in assay [1], in assay [2], in assay [3], in [4], in assay [5] and in assay [6] was over 100 µM in each case. In addition, the TGI in assay [7] was over 100 µM; in [8], over 100 µM; in [9], over 100 µM; in assay [10], over 100 µM; in [11], over 100 µM; in assay [12], 65.4 µM. The TGI is over 100 µM in assay [13]; over 100 µM in assay [15]; over 100 µM in assay [16]; 87.9 µM in assay [17]; over 100 µM in assay [18]; over 100 µM in assay [19]. This compound registered a TGI in assay [20] of over 100 µM.

Take `CCOC(=O)C1(C(N)=O)C(=O)c2ccncc2C1=O` (configuration not stated): the TGI in assay [1], in assay [2], in [3], in assay [4], in assay [5] and in assay [6] was over 100 µM throughout. In addition, the TGI in assay [7], in assay [9], in assay [10], in assay [11], in assay [12] and in assay [13] was over 100 µM in each case. Further, the TGI in [14], in [15], in assay [16], in assay [17], in assay [18] and in [19] was over 100 µM throughout. This compound also displayed a TGI in assay [20] of over 100 µM.

With `O=C(CN1CCN(Cc2ccccc2)CC1)c1ccc2[nH]c(=O)oc2c1`, the TGI in assay [1] was over 100 µM; in [2] it was over 100 µM; in [3] it was over 100 µM; in [4], over 100 µM; in assay [5], 51.2 µM; in [6] it was over 100 µM. Also, the TGI in [7], in assay [8], in [9], in assay [10], in assay [11] and in assay [12] was over 100 µM each time. The TGI in [13], in [14], in [15], in assay [16], in [17] and in [18] was over 100 µM throughout. Moreover, the TGI in assay [19] and in assay [20] was over 100 µM in each case.

Consider `Nc1ccc(S(=O)(=O)Nc2nnc(S(N)(=O)=O)s2)cc1`, for which the TGI in assay [1], in assay [2], in [3], in assay [4], in [5] and in assay [6] was over 100 µM in each case. Further, the TGI in assay [7], in assay [8], in assay [9], in [10], in assay [11] and in [12] was over 100 µM in each case. The TGI in [13], in assay [14], in assay [15], in assay [16], in assay [17] and in assay [18] was over 100 µM throughout. The TGI in assay [19] and in assay [20] was over 100 µM throughout.

For the compound `CC(=O)N(C)SCC(NC(=O)C(Cc1ccccc1)NC(=O)OCc1ccccc1)C(=O)NC(Cc1ccccc1)C(=O)NC(Cc1cn(C=O)c2ccccc12)C(=O)NC(CCCCNC(=O)OCc1ccccc1)C(=O)NC(C(=O)NC(CSN(C)C(C)=O)/C(O)=N\O)C(C)OCc1ccccc1` (configuration not stated) (Cbz-F[X31]FW(For)K(Cbz)T(Bn)-X47; configuration not given here), the TGI in [1], in assay [2], in assay [3], in assay [4], in [5] and in assay [6] was over 100 µM throughout. For the same compound, the TGI in assay [7], in assay [8], in assay [9], in [10], in [11] and in assay [12] was over 100 µM in each case. Besides, the TGI in assay [13], in [14], in [15], in assay [16], in assay [17] and in [18] was over 100 µM in each case. Moreover, the TGI in assay [19] and in assay [20] was over 100 µM in each case.

In the case of `Cc1c2c(c(C)n1-c1ccccc1)C(=O)N(CCCCN1CCN(c3ccccc3)CC1)C2=O`, the TGI was over 100 µM in [1]; 49.3 µM in assay [2]; 46.3 µM in assay [3]; over 100 µM in assay [4]; 20.9 µM in assay [5]; 35.8 µM in [6]. The TGI is 40.8 µM in assay [7]; 26.2 µM in assay [8]; 40.3 µM in [9]; 48.5 µM in assay [10]; over 100 µM in [11]; 47.3 µM in assay [12]. Besides, the TGI in [13] was over 100 µM; in assay [14], over 100 µM; in assay [15], over 100 µM; in assay [16] it was over 100 µM; in [17], 27 µM; in assay [18] it was over 100 µM. For the same compound, the TGI came out at 84.9 µM in assay [19] and 36.8 µM in [20].

With `N#Cc1c(N2CCCC2)nsc1NCc1ccccc1`, the TGI in assay [1], in [2], in [3], in assay [4], in [5] and in assay [6] was over 100 µM throughout. The TGI in [7], in assay [8], in [9], in [10], in assay [11] and in assay [12] was over 100 µM throughout. For the same compound, the TGI in assay [13], in assay [14], in [15], in [16], in [17] and in assay [18] was over 100 µM in each case. Besides, the TGI in [19] and in assay [20] was over 100 µM in each case.

Turning to `Nc1sc2c(c1C(=O)c1ccc(Cl)c(Cl)c1)CCCC2`, the TGI is over 100 µM in [1]; over 100 µM in [2]; over 100 µM in [3]; over 100 µM in [4]; over 100 µM in [5]; 64.8 µM in assay [6]. Also, the TGI in [7] was over 100 µM; in [8], over 100 µM; in [9] it was over 100 µM; in [10], over 100 µM; in assay [11], over 100 µM; in assay [12] it was 78.1 µM. The TGI in assay [13] was over 100 µM; in assay [14], over 100 µM; in [15] it was over 100 µM; in assay [16], 86.4 µM; in assay [17] it was over 100 µM; in [18], over 100 µM. Further, the TGI in assay [19] and in [20] was over 100 µM throughout.

Take `Brc1ccc2[nH]cc(-c3csc(-c4ccccn4)n3)c2c1`: the TGI is 23.7 µM in assay [1]; over 100 µM in assay [2]; over 95.8 µM in assay [3]; over 100 µM in assay [4]; 65.2 µM in assay [5]; over 100 µM in [6]. Besides, the TGI in assay [7] was over 100 µM; in assay [8], over 53.6 µM; in assay [9], 34.8 µM; in assay [10] it was over 100 µM; in assay [11], over 100 µM; in assay [12], 63.7 µM. Further, the TGI is 18.7 µM in assay [13]; over 100 µM in assay [14]; over 100 µM in assay [15]; 36.4 µM in [16]; 43.6 µM in [17]; 98.6 µM in assay [18]. The compound further had a TGI in [19] of 36.4 µM.
